Results: ChEMBL document CHEMBL3046674, “A new fatty alcohol from Terminalia arjuna leaves with antileishmanial activity” (Med Chem Res, 2013)
Converted amounts (≈) assume the structure as drawn.

system: Leishmania donovani; assay: Antileishmanial activity against promastigote form of Leishmania donovani after 48 hrs by Alamar Blue assay; assay type: functional, organism-based

Structure (SMILES) | IC50 | IC90
C/C(=C\CO)CC(C)CC(C)CCCCCCCCC(C)C (configuration not stated) | 9 µg/mL (≈ 29 µM) | 30 µg/mL (≈ 96.6 µM)
CC(=O)OC/C=C(\C)CC(C)CC(C)CCCCCCCCC(C)C (configuration not stated) | 2 µg/mL (≈ 5.67 µM) | 6 µg/mL (≈ 17 µM)
C[C@@H]1[C@H](O)[C@@H](C)/C=C/C=C/C=C/C=C/C=C/C=C/C=C/[C@H](O[C@@H]2O[C@H](C)[C@@H](O)[C@H](N)[C@@H]2O)C[C@@H]2O[C@](O)(C[C@@H](O)C[C@@H](O)[C@H](O)CC[C@@H](O)C[C@@H](O)CC(=O)O[C@H]1C)C[C@H](O)[C@H]2C(=O)O [AMPHOTERICIN B] | 0.47 µg/mL (≈ 0.509 µM) | 0.65 µg/mL (≈ 0.703 µM)
N=C(N)c1ccc(OCCCCCOc2ccc(C(=N)N)cc2)cc1 [PENTAMIDINE] |  | 2.03 µg/mL (≈ 5.96 µM)
